Source: US6469052B2, “Compounds for the photodecontamination of pathogens in blood” (Cerus Corporation, priority 1993, dated 2002)

Tests used:
Pseudomonus = experiment: Bacterial inactivation (colony forming units); format: cell-based; conditions: 16 μM, after 5 J/cm^2 irradiation, starting titer 6.5 logs, 15% FBS in DMEM
Procedure: In this example bacterial inactivation by the photoreactive nucleic acid binding compounds of the present invention was measured as a function of the ability of the bacteria to subsequently replicate. A gram negative bacteria was chosen as representative of the more difficult bacterial strains to inactivate.
The bacteria, a strain of Pseudomonus, was innoculated into LB with a sterile loop and grown overnight in a shaker at 37° C. Based on the approximation that one OD at 610 nm is equivalent to 5×10^8 colony forming units (cfu)/mL, a 1:10 dilution of the culture was measured on a spectrophotometer, (manufactured by Shimatsu). The bacterial culture was added to a solution of 15% fetal bovine serum in DMEM to a final bacteria concentration of approximately 10^6/mL. An aliquot (0.8 mL) was transferred to a 1.5 mL snap-top polyethylene tube. An aliquot (0.004-0.040 mL) of the test compound stock solution prepared in water, ethanol or dimethylsulfoxide at 0.80-8.0 mM was added to the tube. Compounds were tested at a concentration of 16 μM. The tubes were placed in a light device as described in EXAMPLE 1 and irradiated with 1.3 J/cm^2, 1.2 J/cm^2, and finally 2.5 J/cm^2, for a total of 5 J/cm^2. […] The colony forming units were then counted the following morning and the titer of the […] remaining after phototreatment was calculated based on the dilution factors. […]

[1] = system: GMP-140 (p-selectin) on platelets; experiment: Platelet function: GMP-140 expression (flow cytometry, CD62); format: cell-based, human; conditions: 100 μM compound, 5 Joules/cm^2, 5 days storage
Procedure: To measure the effects of the present compounds and methods of decontamination on platelet function using these four indicators, four samples were prepared for each compound tested, two control samples and two containing compound. Three units of human platelets were obtained from the Sacramento Blood Center, Sacramento, Calif. These were each transferred under sterile conditions to 50 ml centrifuge tubes, then aliquots of each unit were transferred into a second set of 50 ml sterile centrifuge tubes. To each centrifuge tube containing platelet concentrate (PC), an aliquot of compound stock was added to reach a final concentration of 100 μM of compound. […] The samples were pipetted gently up and down to mix. Then aliquots (either 3 ml or 8 ml) of each sample was transferred to two sterile Teflon™ Medi-bags™ (American Fluoroseal Co., Silver Springs, Md.) (presently owned by The West Company, Lionville, Pa.). Samples were treated in one of two different sized bags, having either 3 ml or 8 ml capacity. […] For each compound tested, two control samples without compound were prepared by again removing aliquots of platelet concentrate (17 ml if using an 8 ml bag, […] if using a 3 ml bag) from the same one of the first set of 50 ml centrifuge tubes from which the compound sample was drawn, and dividing into Medibags, as before. One of each pair of Medibags containing a compound, and one of each pair of control Medibags, were illuminated for 5 Joules/cm^2 on the device described in Example 1, above. Then all experimental and control Medibags were placed on a platelet shaker for storage for 5 days. The same experiments were repeated several times to obtain more statistically meaningful data, as represented by “n”, the number of data points represented, in the graphs of FIGS. 21-24, discussed below.

**Q.** Which “log kill of bacteria” value (Pseudomonus) does the source give for `Cc1oc2c(C)c3oc(=O)cc(C)c3cc2c1COCCN` [Compound 2, 4′-(4-amino-2-oxa)butyl-4,5′,8-trimethylpsoralen] here?
**A.** > 5.5 logs

**Q.** And the “GMP-140 expression: sample treated with light and psoralen (PCD) versus day 5 untreated control (D5)” value [1]?
**A.** little or no difference

**Q.** Which results are given for `Cc1oc2c(C)c3oc(=O)cc(C)c3cc2c1CNCCCCN` [Compound 6, 4′-(6-amino-2-aza)hexyl-4,5′,8-trimethylpsoralen]?
**A.** log kill of bacteria (Pseudomonus): > 5.5 logs; GMP-140 expression: sample treated with light and psoralen (PCD) versus day 5 untreated control (D5) [1]: little or no difference
